ChEMBL document CHEMBL1155729, “Hydrachine A, a novel alkaloid from the roots of Hydrangea chinensis” (J Nat Prod, 2001)
The source made the active and inactive calls. No cut-off for these calls is given here.

Key:
[1] = system: NUGC; test: Cytotoxicity against human NUGC cells; format: functional, cell-based
[2] = system: HONE1; test: Cytotoxicity against human HONE1 cells; format: functional, cell-based

O=C1C[C@@H]2[C@@H](O)CCCN2[C@H](n2cnc3ccccc3c2=O)C1
Activity [1]: inactive | Activity [2]: inactive

CC1(C)[C@@H](n2cnc3ccccc3c2=O)C(=O)C[C@@H]2[C@@H](O)CCCN21
Activity [1]: inactive | Activity [2]: inactive

O=C(C[C@@H]1NCCC[C@H]1O)Cn1cnc2ccccc2c1=O
Activity [1]: inactive | Activity [2]: inactive
